# Reference: ChEMBL document CHEMBL1201862, “PubChem BioAssay data set” (2004)
# Where a name gives a salt, the structure may show the parent alone. The source made the active and inactive calls.
# Assays:
# Vero = assay: Vero cell toxicity, dose response, cytotoxicity control, plate reader, cherry-pick samples (AID 687020); type: functional, cell-based; details: Chlorocebus sabaeus
# [1] = molecular target: T1, Beta-2 adrenergic receptor (Homo sapiens, UniProt P07550); assay: Dose response for HTS for Beta-2AR agonists via FAP method from Powderset1.; type: functional
# T1 sequence (P07550 whole entry): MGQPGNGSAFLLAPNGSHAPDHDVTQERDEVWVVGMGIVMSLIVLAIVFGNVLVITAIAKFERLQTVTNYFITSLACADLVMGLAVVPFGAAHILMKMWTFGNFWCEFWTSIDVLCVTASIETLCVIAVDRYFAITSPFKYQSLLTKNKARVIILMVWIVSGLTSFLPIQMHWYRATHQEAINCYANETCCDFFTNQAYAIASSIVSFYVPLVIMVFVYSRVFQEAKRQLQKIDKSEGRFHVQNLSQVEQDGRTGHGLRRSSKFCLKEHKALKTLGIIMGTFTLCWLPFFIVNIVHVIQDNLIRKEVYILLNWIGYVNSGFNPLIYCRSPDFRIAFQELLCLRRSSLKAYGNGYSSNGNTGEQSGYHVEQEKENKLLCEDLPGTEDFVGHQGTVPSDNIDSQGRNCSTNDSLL
# [2] = molecular target: T1, Beta-2 adrenergic receptor; assay: beta2AR agonists driving receptor internalization, dose response, cell-based, FAP fluorogen, flow cytometry, cherry pick 1 (AID 588763); type: functional
# [3] = molecular target: T2, Carboxy-terminal domain RNA polymerase II polypeptide A small phosphatase 1 (Homo sapiens, UniProt Q9GZU7); assay: inhibitors of CTDSP1, concentration-response testing, biochemical assay, absorbance-based, actives from ultra-high-throughput screening (AID 540297); type: functional
# T2 sequence (Q9GZU7 whole entry): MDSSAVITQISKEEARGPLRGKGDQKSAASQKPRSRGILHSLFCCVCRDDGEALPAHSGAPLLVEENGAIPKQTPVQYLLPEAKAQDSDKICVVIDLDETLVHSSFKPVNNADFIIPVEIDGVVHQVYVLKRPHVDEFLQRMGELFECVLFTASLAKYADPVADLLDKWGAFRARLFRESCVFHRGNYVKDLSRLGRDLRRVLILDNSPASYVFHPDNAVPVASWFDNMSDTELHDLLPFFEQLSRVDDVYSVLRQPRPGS
# [4] = molecular target: T3, Tyrosine-protein phosphatase non-receptor type 11 (Homo sapiens, UniProt Q06124); assay: SHP2 phosphatase inhibition, dose response, selectivity assay for STEP inhibitor project, biochemical (AID 602367); type: functional; details: read-out: IC50_Mean
# T3 sequence (Q06124 whole entry): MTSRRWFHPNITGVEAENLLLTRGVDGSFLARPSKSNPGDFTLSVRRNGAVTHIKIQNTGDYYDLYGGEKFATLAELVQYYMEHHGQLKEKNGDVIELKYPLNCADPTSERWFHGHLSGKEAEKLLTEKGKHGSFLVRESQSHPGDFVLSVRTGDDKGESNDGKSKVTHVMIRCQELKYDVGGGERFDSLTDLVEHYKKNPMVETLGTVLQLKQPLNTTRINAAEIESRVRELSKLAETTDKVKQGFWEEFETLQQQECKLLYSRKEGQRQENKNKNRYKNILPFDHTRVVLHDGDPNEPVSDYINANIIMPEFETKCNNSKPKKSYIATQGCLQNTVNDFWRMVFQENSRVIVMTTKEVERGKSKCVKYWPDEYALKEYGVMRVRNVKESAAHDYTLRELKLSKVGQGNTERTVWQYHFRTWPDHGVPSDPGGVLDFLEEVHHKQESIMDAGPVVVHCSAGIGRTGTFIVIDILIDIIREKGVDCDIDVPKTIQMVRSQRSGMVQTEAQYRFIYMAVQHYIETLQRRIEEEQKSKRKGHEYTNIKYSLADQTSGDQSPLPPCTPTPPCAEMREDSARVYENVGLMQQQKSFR
# [5] = molecular target: Dual specificity protein phosphatase 3 (Homo sapiens, UniProt P51452); assay: VHR phosphatase inhibition, dose response, selectivity assay for STEP inhibitor project, biochemical (AID 602374); type: functional; details: read-out: IC50_Mean
# Sequence of Dual specificity protein phosphatase 3 (P51452 whole entry, the tested form may be a part): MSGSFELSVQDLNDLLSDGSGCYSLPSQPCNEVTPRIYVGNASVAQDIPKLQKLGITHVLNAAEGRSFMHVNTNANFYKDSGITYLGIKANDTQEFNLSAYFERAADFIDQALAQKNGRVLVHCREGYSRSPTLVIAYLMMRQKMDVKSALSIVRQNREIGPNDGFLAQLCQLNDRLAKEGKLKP
# [6] = molecular target: Arf-GAP with SH3 domain, ANK repeat and PH domain-containing protein 1 (Homo sapiens, UniProt Q9ULH1); type: functional;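 further: biochemical fluorescence polarization dose–response screen measuring inhibition of ASAP1; ASAP1 GAP domain stimulating GTP hydrolysis by truncated human ARF1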
# Sequence of Arf-GAP with SH3 domain, ANK repeat and PH domain-containing protein 1 (Q9ULH1 whole entry, the tested form may be a part): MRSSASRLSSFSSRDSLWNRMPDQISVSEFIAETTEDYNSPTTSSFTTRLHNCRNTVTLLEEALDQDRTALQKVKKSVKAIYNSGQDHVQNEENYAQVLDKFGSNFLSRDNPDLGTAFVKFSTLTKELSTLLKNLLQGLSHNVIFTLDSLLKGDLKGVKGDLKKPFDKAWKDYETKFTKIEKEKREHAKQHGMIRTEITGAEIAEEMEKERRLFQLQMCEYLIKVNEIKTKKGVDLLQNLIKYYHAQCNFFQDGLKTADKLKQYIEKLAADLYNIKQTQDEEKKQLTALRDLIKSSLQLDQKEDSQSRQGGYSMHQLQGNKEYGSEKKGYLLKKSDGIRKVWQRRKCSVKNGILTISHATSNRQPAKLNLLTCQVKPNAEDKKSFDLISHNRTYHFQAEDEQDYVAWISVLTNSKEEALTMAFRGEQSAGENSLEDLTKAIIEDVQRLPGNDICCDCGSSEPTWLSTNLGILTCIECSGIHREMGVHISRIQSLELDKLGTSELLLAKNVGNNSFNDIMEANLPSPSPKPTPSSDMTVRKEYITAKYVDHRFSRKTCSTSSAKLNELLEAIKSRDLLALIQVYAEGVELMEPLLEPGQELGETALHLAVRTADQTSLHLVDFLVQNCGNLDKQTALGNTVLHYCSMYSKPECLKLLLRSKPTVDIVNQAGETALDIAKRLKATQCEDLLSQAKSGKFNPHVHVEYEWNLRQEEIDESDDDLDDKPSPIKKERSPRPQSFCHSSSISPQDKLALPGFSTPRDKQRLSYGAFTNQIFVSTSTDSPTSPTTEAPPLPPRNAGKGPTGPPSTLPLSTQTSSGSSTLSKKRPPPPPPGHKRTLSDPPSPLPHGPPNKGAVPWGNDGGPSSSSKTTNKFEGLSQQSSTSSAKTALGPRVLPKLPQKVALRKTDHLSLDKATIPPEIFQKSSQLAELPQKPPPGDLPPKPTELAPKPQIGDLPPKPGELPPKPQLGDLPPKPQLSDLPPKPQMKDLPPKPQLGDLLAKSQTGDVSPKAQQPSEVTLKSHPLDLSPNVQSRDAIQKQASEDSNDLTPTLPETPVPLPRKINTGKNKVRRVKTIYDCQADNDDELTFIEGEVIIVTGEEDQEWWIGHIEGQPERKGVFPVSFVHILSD
# [7] = molecular target: T4, Tyrosine-protein phosphatase non-receptor type 5 (Homo sapiens, UniProt P54829); assay: STEP phosphatase inhibitors, confirmation, biochemical, fluorescence intensity, uHTS hits (AID 602372); type: functional; details: read-out: IC50_Mean
# T4 sequence (P54829 whole entry): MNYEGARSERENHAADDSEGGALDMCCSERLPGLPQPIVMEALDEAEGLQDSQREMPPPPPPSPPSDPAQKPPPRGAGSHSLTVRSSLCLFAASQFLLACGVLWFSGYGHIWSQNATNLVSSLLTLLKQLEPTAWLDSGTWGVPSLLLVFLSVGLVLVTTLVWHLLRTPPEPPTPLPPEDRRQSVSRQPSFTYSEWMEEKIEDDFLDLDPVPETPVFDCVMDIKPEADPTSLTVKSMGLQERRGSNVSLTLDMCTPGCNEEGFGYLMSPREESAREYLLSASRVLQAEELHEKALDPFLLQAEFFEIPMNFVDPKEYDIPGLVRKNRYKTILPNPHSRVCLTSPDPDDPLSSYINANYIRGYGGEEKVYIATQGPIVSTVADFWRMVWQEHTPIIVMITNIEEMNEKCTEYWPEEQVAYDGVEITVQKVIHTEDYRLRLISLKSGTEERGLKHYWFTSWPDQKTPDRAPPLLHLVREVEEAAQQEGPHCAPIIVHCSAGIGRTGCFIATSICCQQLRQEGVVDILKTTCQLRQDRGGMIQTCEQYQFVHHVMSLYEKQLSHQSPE
# [8] = molecular target: Broad substrate specificity ATP-binding cassette transporter ABCG2 (Homo sapiens, UniProt Q9UNQ0); assay: ABCG2 efflux pump inhibitors, dose response, Ig-MXP3 cells, flow cytometry (AID 1690); type: functional
# Sequence of Broad substrate specificity ATP-binding cassette transporter ABCG2 (Q9UNQ0 whole entry): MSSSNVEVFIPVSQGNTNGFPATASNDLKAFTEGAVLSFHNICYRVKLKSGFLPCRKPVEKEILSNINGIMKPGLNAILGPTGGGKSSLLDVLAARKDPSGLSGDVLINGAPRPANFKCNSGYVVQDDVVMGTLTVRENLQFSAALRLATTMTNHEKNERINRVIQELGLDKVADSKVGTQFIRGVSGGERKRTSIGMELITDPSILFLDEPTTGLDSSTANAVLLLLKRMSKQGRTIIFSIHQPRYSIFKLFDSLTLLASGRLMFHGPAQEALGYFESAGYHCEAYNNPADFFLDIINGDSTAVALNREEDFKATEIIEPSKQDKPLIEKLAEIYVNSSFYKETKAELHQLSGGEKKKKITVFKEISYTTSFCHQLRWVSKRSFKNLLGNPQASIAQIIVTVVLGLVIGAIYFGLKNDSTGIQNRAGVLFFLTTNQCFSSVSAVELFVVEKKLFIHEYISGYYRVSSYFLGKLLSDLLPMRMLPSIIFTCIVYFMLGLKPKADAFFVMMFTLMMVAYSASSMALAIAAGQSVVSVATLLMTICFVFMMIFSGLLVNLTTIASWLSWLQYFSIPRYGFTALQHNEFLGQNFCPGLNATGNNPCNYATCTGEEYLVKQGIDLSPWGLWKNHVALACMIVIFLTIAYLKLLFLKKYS
# [9] = growth suppression of PTEN-null colon cells, dose response, cell-based, HCT116 PTEN knockout (AID 1047); type: functional;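 further: HCT116 colon tumor cells with PTEN knocked out; cells exposed to compound for 60 hours before readout; potency for loss of cell viability measured by luminescence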
# [10] = growth suppression of beta-catenin-knockout colon cells, dose response, cell-based, HCT116, human colon tumor (AID 1045); type: functional;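 further: HCT116 colon tumor cells with beta catenin knocked out; cells exposed to compound for 60 hours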
# [11] = Counterscreen for activators of the function of SWI/SNF related, matrix associated, actin dependent regulator of chromatin, subfamily a, member 2 (SMARCA2, BRM): Luminescence-based cell-based high throughput dose response assay to identify non-selective compounds using the VP16 reporter assay.; type: functional
# [12] = molecular target: SWI/SNF-related matrix-associated actin-dependent regulator of chromatin subfamily A member 2 (Homo sapiens, UniProt P51531); assay: Luminescence-based cell-based high throughput dose response assay to identify activators of the function of SWI/SNF related, matrix associated, actin dependent regulator of chromatin, subfamily a, member 2 (SMARCA2, BRM).; type: functional
# Sequence of SWI/SNF-related matrix-associated actin-dependent regulator of chromatin subfamily A member 2 (P51531 whole entry): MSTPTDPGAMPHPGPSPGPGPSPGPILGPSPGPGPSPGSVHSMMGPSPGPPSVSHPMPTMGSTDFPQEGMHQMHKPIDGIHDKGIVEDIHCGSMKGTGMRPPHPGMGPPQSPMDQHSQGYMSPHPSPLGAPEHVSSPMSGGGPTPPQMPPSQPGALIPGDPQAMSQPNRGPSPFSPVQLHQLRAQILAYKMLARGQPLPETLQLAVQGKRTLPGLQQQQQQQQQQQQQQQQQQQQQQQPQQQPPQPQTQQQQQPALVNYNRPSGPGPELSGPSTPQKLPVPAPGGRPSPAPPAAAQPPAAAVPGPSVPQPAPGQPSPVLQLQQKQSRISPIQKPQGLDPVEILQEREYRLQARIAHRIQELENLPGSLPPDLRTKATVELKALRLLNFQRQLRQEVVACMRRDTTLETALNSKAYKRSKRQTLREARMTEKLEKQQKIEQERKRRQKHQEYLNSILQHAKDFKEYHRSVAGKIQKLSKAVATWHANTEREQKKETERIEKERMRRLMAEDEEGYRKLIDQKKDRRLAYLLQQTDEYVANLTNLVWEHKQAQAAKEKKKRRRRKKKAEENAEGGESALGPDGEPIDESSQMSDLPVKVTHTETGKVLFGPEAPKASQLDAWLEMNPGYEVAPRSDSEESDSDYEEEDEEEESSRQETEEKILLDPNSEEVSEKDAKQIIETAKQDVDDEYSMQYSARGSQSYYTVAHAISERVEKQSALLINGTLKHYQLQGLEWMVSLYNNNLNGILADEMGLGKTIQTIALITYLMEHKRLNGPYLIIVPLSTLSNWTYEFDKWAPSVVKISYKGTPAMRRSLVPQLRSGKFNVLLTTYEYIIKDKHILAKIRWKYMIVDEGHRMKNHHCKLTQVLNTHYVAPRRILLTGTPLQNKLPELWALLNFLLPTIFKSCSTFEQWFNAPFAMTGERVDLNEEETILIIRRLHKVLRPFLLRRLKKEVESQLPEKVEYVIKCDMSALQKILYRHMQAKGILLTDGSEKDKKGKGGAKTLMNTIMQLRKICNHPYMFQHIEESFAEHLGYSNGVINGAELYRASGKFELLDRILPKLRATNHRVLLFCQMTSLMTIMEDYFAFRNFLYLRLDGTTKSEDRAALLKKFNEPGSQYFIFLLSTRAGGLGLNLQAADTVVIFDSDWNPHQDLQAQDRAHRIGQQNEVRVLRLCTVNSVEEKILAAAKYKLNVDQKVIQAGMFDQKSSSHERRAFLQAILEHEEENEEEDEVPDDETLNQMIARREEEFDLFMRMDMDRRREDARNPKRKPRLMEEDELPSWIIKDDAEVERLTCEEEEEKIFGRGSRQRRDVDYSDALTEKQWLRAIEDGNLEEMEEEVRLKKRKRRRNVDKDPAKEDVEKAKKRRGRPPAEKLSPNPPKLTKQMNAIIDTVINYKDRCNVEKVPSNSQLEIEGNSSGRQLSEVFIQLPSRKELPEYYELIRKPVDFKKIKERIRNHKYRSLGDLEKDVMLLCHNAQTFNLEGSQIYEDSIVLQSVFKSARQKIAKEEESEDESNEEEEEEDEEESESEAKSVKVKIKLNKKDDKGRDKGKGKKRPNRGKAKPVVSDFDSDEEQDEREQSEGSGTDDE
# [13] = HEK293T cell cytotoxicity, dose response, cytotoxicity control for HIV Vif inhibitor project, cherry-picks (AID 652208); type: functional, cell-based
# [14] = NIH/3T3 fibroblast cytotoxicity, dose response, cytotoxicity control for T. cruzi growth inhibitor project, cell-based, cherry-pick samples, set 2 (AID 651817); type: functional; details: NIH3T3
# Protein RecA = molecular target: T5, Protein RecA (Mycobacterium tuberculosis, UniProt P9WHJ3); assay: Fluorescence Cell-Free Homogeneous Dose Retest to Identify Inhibitors of RecA-Intein Splicing Activity. [Related pubchem assays (depositor defined):AID2097, AID2223, AID489010, AID492950]; type: functional
# T5 sequence (P9WHJ3 whole entry): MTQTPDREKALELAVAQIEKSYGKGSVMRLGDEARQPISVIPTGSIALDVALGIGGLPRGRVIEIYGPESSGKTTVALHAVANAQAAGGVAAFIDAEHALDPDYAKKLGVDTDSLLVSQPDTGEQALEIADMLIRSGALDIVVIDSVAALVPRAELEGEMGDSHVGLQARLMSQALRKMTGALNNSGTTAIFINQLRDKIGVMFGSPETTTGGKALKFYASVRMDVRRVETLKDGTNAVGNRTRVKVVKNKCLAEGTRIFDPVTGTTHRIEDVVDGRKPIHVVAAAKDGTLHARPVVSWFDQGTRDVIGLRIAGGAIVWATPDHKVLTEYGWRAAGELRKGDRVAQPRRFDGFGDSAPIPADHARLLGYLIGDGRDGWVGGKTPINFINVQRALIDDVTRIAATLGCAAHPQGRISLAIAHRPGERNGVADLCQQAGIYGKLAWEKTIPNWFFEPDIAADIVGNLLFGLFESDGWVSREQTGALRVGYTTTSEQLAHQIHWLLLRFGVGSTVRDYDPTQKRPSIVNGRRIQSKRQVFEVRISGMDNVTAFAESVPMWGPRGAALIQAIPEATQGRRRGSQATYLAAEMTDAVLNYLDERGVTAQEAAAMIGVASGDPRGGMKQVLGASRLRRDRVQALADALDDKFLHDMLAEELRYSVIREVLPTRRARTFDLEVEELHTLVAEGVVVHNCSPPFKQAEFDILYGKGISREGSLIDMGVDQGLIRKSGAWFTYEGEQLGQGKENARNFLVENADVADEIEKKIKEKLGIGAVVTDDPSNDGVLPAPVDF
# [15] = molecular target: T6, Sentrin-specific protease 8 (Homo sapiens, UniProt Q96LD8); type: functional
# T6 sequence (Q96LD8 whole entry): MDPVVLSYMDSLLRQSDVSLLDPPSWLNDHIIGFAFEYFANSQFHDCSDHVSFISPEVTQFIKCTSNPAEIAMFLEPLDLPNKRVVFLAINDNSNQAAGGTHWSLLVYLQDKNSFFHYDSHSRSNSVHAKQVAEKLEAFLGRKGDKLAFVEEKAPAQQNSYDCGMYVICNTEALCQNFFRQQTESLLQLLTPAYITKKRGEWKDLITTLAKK
# [16] = molecular target: T6, Sentrin-specific protease 8; type: functional; remark: listed apart in the source
# [17] = molecular target: T7, Replicative DNA helicase DnaB (Mycobacterium tuberculosis, UniProt P9WMR3); assay: DnaB intein splicing inhibitors, dose response, biochemical, cell-free fluorescence (AID 449749); type: functional
# T7 sequence (P9WMR3 whole entry): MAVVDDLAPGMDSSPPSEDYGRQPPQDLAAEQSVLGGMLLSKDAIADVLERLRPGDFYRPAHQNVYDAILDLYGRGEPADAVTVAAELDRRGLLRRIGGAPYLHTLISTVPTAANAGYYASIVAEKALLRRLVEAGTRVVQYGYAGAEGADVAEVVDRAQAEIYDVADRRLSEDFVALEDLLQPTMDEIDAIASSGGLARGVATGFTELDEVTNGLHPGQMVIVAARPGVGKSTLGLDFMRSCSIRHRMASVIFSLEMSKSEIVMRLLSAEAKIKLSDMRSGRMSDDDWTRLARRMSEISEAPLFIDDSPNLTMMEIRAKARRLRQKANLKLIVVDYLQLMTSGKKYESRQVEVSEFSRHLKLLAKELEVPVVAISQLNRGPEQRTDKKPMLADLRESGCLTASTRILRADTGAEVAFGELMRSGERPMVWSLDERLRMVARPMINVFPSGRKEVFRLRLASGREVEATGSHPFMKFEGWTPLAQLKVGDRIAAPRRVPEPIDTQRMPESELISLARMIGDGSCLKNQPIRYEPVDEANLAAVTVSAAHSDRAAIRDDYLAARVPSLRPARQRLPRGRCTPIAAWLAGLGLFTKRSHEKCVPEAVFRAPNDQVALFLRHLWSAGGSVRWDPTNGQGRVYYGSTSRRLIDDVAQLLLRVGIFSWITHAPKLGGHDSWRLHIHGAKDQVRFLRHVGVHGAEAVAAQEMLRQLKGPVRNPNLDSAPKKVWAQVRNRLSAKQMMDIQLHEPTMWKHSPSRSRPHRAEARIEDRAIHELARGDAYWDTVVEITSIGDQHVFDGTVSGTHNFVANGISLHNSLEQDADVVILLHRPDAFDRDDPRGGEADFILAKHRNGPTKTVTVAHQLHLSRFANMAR
# Beta Lactamase [18] = molecular target: T8, Beta Lactamase (Pseudomonas aeruginosa, UniProt Q932Y6); assay: VIM-2 inhibitor FRET-based artefact check, dose response, artefact control for selective VIM-2 inhibitor project, biochemical, FRET readout, CCF2 substrate (AID 1926)
# T8 sequence (Q932Y6 whole entry): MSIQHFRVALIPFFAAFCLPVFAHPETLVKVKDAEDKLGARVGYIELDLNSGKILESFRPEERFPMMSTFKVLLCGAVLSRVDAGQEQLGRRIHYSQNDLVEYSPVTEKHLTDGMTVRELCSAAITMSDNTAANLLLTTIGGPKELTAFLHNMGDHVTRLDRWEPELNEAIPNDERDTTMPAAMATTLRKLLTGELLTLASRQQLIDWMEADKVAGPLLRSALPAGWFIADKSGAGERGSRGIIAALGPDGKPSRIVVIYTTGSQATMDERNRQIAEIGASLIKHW
# Beta-lactamase [19] = molecular target: T9, Beta-lactamase (Pseudomonas aeruginosa, UniProt Q79MP6); assay: […] counterscreen for selective VIM-2 inhibitors: dose response biochemical high throughput screening assay to identify inhibitors of IMP-1 metallo-beta-lactamase.
# T9 sequence (Q79MP6 whole entry): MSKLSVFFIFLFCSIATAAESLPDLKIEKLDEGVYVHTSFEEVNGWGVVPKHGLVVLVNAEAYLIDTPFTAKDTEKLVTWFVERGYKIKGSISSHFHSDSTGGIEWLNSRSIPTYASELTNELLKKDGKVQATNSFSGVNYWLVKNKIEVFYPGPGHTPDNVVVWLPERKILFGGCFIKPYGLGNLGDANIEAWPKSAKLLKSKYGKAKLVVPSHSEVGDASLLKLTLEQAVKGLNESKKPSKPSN
# Beta-lactamase [20] = molecular target: Beta-lactamase (Salmonella choleraesuis (strain SC-B67), UniProt Q5J463); assay: Epi-absorbance-based counterscreen for selective VIM-2 inhibitors: dose response biochemical high throughput screening assay to identify inhibitors of TEM-1 serine-beta-lactamase.
# Beta-lactamase [21] = molecular target: T9, Beta-lactamase; assay: IMP-1 metallo-beta-lactamase inhibitors, dose response, selectivity assay for VIM-2 inhibitor project, biochemical, epi-absorbance (AID 1920)
# Beta Lactamase [22] = molecular target: T8, Beta Lactamase; assay: VIM-2 metallo-beta-lactamase inhibitor potency, dose response, biochemical, epi-absorbance readout, selective inhibitors (AID 1919)
# [23] = molecular target: 5-hydroxytryptamine receptor 2A (Mus musculus, UniProt P35363); type: functional, cell-based;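 further: CHO-K1 cells with tagged receptor and beta-arrestin; agonist potency measured as compound-induced activation of the receptor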
# Sequence of 5-hydroxytryptamine receptor 2A (P35363 whole entry): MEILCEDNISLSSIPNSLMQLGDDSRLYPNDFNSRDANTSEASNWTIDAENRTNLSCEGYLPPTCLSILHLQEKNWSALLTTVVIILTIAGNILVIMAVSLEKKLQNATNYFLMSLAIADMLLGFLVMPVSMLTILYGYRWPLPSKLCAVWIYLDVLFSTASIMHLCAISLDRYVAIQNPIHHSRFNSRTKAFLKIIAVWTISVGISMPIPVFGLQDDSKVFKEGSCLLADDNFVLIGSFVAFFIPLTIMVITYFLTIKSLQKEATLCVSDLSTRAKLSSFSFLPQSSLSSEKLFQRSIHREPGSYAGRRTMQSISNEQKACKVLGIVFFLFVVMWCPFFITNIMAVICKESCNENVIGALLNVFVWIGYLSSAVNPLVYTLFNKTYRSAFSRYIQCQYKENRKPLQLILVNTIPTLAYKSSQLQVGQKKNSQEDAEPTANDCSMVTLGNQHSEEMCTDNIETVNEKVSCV
# Mu-type opioid receptor = Mu-type opioid receptor (Homo sapiens, UniProt P35372); type: functional, cell-based;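 further: U2OS cells with beta-arrestin recruitment to OPRM1 by beta-gal complementation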
compound,measurement,setting,value
N#Cc1ccc(CN2CCN(C(=O)CC(NC(=O)c3ccccc3)c3ccccc3)CC2)cc1 (stereo unspecified),AC50,Vero,38.1 µM (active)
Cc1ccc(SCC(=O)Nc2ccc(-c3nnc(-c4ccco4)o3)cc2)cc1,EC50,[1],0.713 µM (active)
same,EC50,[2],0.629 µM (active)
same,IC50,[3],9.04 µM (active)
Cc1nnc2sc(-c3ccc(NC(=O)c4ccc(-c5ccc(Cl)cc5Cl)o4)cc3)nn12,IC50,[4],0.409 µM (active)
same,IC50,[5],0.716 µM (active)
same,IC50,[6],2.48 µM (active)
same,IC50,[7],> 80 µM (inactive)
COc1ccc2cc(C(=O)OC(C)C)sc(=O)c2c1OC,EC50,[8],24.4 µM (inactive)
OC1CCCN(Cc2ccc3ccc4cccc5ccc2c3c45)C1 (stereo unspecified),EC50,[9],8.96 µM (active)
same,EC50,[10],8.21 µM (active)
same,EC50,[11],> 91.2 µM (inactive)
same,EC50,[12],> 10.1 µM (inactive)
Cc1ccc(/C=C2/CNC/C(=C/c3ccc(C)cc3)C2=O)cc1,AC50,[13],10.3 µM (active)
C[C@H](CO)N1C[C@H](C)[C@H](CN(C)Cc2ccc(Cl)c(Cl)c2)Oc2c(NC(=O)Nc3ccc(C(F)(F)F)cc3)cccc2C1=O,AC50,[14],12.9 µM (active)
Cc1cc(=O)n(-c2ccc(O)cc2)[nH]1,EC50,Protein RecA,0.774 µM (active)
same,IC50,[15],19.1 µM (active)
same,IC50,[16],17.2 µM (active)
same,AC50,[17],2.3 µM (active)
O=C(O)COc1ccccc1/C=N/n1c(S)nnc1C1CCCCC1,IC50,Beta Lactamase [18],8.62 µM (active)
same,IC50,Beta-lactamase [19],> 59.6 µM (inactive)
same,IC50,Beta-lactamase [20],> 59.6 µM (inactive)
same,IC50,Beta-lactamase [21],> 59.6 µM (inactive)
same,IC50,Beta Lactamase [22],23.1 µM (inactive)
CCCN1CCC[C@@H](c2cccc(O)c2)C1 [PRECLAMOL HYDROCHLORIDE],EC50,[23],76 µM (inactive)
same,EC50,Mu-type opioid receptor,92.4 µM (inactive)
